{"source": "patent US9795694B2", "about": "“Imaging beta-amyloid peptides aggregation” (Hong Kong Baptist University, priority 2014, dated 2017)", "key": {"SH-SY5Y neuronal cell [1]": {"tested_on": "SH-SY5Y neuronal cell", "test": "MTT reduction assay, cytotoxicity", "protocol": "Human neuroblastoma SH-SY5Y neuronal cells were incubated with different concentrations of SLCOOH-conjugated SiO2@Fe3O4 nanoparticles at 37° C. for 24 h."}, "[2]": {"target": "T1, Aβ (1-40) peptide aggregation / fibril formation (Homo sapiens, UniProt P05067)", "T1 construct": "Aβ(1-40) fibrils prepared from Aβ40 with seed incubated at 37° C. for an hour in buffer", "T1 sequence (P05067 672-711)": "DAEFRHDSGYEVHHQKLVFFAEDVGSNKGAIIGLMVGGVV", "test": "TIRFM study of inhibition of Aβ fibril formation", "assay_type": "biochemical", "conditions": "for inhibition of Aβ peptide aggregation and fibril growth: TIRFM, ThT dye excited at 445 nm", "source_text": "These images were obtained by an addition of ThT dye excited at 445 nm.\nThe panels below show the images of seed only and Aβ fibril formation without the carbazole-based fluorophore for comparison. These images were obtained by an addition of ThT dye excited at 445 nm.\nA novel series of water-soluble carbazole-based fluorophores has been designed and developed. […] Upon binding with Aβ peptides, there is about 8- to about 82-fold increase in fluorescence intensity concomitant with the substantial blue shifts (Δλ=14-22 nm) in the emission spectra of the fluorophores (FIG. 2A-2H). […] (e.g. Ffibril/FSLOH=81.5 vs. Fpeptide/FSLOH=6.3). Because of such strong increase in fluorescence, the signal-to-noise ratio is so high that imaging of single fibrils is possible. (FIG. 3A-3C) Compared to common commercial labeling dyes for Aβ such as Thioflavin-T and Congo Red, the carbazole-based fluorophores of the present invention provide an advantage of a wide range of excitation and emission tuning in visible to infra-red region (FIG. 4A-4B). Some of these molecules, e.g., SAM and SAOH, even emit at ˜[…] (FIG. 5A-5B), which can potentially be used for near infra-red fluorescence imaging. In addition to fluorescence titration, the binding of Aβ peptide and fibril with the carbazole-based fluorophores of the present invention were further confirmed by circular dichroism spectroscopy (FIG. 6A-6B), and electrospray ionization-mass spectrometry (ESI-MS). Total Internal Reflection Fluorescence Microscope (TIRFM) technique developed by us was used to investigate the inhibition effects of these functional fluorophores on Aβ fibril formation (FIG. 7A-7F). […] Such inhibitory effect was further confirmed by Transmission Electron Microscopy (TEM) study (FIG. 8A-8B).\nThe inhibitory effect of the carbazole-based fluorophores of the present invention on Aβ fibril growth was further investigated by measuring the (average) length of the Aβ fibrils formed after incubation of the Aβ monomers for 60 min with additions of SLOH at different time points during this period (FIG. 9A-9B). Parallel experiments conducted without any addition of SLOH were used as controls.\nTotal Internal Reflection Fluorescence Microscope (TIRFM) technique developed was used to investigate the inhibition effects of these functional fluorophores on Aβ (1-40) fibril formation (FIG. 17)."}, "[3]": {"test": "Blood-brain barrier penetration after tail vein injection", "assay_type": "in vivo", "conditions": "mice", "source_text": "(§1) However, in order for the observed neuroprotective effect to be clinically useful, these molecules need to be able to pass through the blood-brain barrier."}, "Aβ plaques": {"tested_on": "Aβ plaques", "test": "Aβ plaque targeting in brain, co-stained with ThT or Aβ antibody", "assay_type": "in vivo, transgenic mice", "conditions": "brain slides co-stained with ThT or Aβ antibody with DAB stain", "source_text": "as §1\n(A) Differential Interference Contrast (DIC) image of the brain slice of a 12-month-old APP/PS1 Tg mouse. (B) Histological staining of the brain slice with SLCOOH-conjugated SiO2@Fe3O4 nanoparticles (λex=500 nm, λem=620-680 nm). (C) ThT fluorescence images of the brain slice captured with λex=405 nm, λem=460-490 nm (D) The superimposed images of (B) and (C)."}, "[4]": {"tested_on": "primary cortical neural cells", "test": "Protection from Aβ-induced cytotoxicity", "assay_type": "cell-based", "conditions": "Aβ monomer, oligomers and fibrils", "source_text": "(§2) The reactive oxygen species (ROS) induced by the Aβ toxicity causes much damage in AD."}, "[5]": {"tested_on": "ROS in primary cortical cells", "test": "Reduction of ROS induced by Aβ species", "assay_type": "cell-based", "source_text": "as §2"}, "[6]": {"test": "Fluorescence spectra in phosphate buffer solution", "assay_type": "physicochemical", "source_text": "(§3) A novel series of water-soluble carbazole-based fluorophores has been designed and developed. […] Upon binding with Aβ peptides, there is about 8- to about 82-fold increase in fluorescence intensity concomitant with the substantial blue shifts (Δλ=14-22 nm) in the emission spectra of the fluorophores (FIG. 2A-2H). […] (e.g. Ffibril/FSLOH=81.5 vs. Fpeptide/FSLOH=6.3). Because of such strong increase in fluorescence, the signal-to-noise ratio is so high that imaging of single fibrils is possible. (FIG. 3A-3C) Compared to common commercial labeling dyes for Aβ such as Thioflavin-T and Congo Red, the carbazole-based fluorophores of the present invention provide an advantage of a wide range of excitation and emission tuning in visible to infra-red region (FIG. 4A-4B). Some of these molecules, e.g., SAM and SAOH, even emit at ˜[…] (FIG. 5A-5B), which can potentially be used for near infra-red fluorescence imaging. In addition to fluorescence titration, the binding of Aβ peptide and fibril with the carbazole-based fluorophores of the present invention were further confirmed by circular dichroism spectroscopy (FIG. 6A-6B), and electrospray ionization-mass spectrometry (ESI-MS). Total Internal Reflection Fluorescence Microscope (TIRFM) technique developed by us was used to investigate the inhibition effects of these functional fluorophores on Aβ fibril formation (FIG. 7A-7F). […]"}, "SH-SY5Y neuronal cell [7]": {"tested_on": "SH-SY5Y neuronal cell", "test": "Protection of neuronal cells from Aβ oligomer and fibril toxicity", "assay_type": "cell-based, Human", "conditions": "incubated for 2 and 6 hours"}, "[8]": {"tested_on": "Aβ(1-40) and Aβ(1-42) peptides", "test": "Fluorescence titration of the fluorophores with Aβ peptides", "assay_type": "binding", "conditions": "Aβ peptide", "source_text": "as §3"}, "Aβ(1-40) fibrils": {"target": "T2, Aβ(1-40) fibrils (Homo sapiens, UniProt P05067)", "T2 construct": "Aβ(1-40) fibrils prepared from Aβ40 with seed incubated at 37° C. for an hour in buffer", "T2 sequence (P05067 672-711)": "as above", "test": "Fluorescence titration of the fluorophores with Aβ fibrils", "assay_type": "binding", "source_text": "as §3"}}, "note": "“Also recorded” adds a separate entry of the source."}
{"smiles": "COCCOCCn1c2ccc(F)cc2c2cc(/C=C/c3cc[n+](CCO)c4ccccc34)ccc21", "note": "[F-SLOH, (E)-4-(2-(6-Fluoro-9-(2-(2-methoxyethoxy)ethyl)-9H-carbazol-3-yl)vinyl)-1-(2-hydroxyethyl)quinolin-1-ium chloride]", "values": [{"measurement": "toxicity (in words)", "setting": "SH-SY5Y neuronal cell [1]", "result": "non-toxic"}, {"measurement": "inhibition of Aβ peptide aggregation and fibril growth", "setting": "[2]", "result": "inhibit Aβpeptide aggregation and prevent fibril growth; also recorded: inhibit Aβ (1-40) peptide aggregation and prevent fibril growth; also recorded: potent Aβ aggregation inhibitors"}, {"measurement": "ability to penetrate the blood-brain barrier", "setting": "[3]", "result": "show blood-brain permeability; also recorded: ability to cross the blood-brain barrier"}, {"measurement": "targeting of / selectivity towards Aβ plaques in brain", "setting": "Aβ plaques", "result": "target the Aβ plaques"}, {"measurement": "protection from the neurotoxic effects of the Aβ species", "setting": "[4]", "result": "protected from the neurotoxic effects of the Aβ species; also recorded: protective effect against the neurotoxic activities of the Aβ oligomers and fibrils"}, {"measurement": "reduction of ROS induced by the Aβ species", "setting": "[5]", "result": "reduce the ROS induced by the Aβ species"}]}
{"smiles": "Cn1c2ccccc2c2cc(/C=C/c3cc[n+](C)c4ccccc34)ccc21", "note": "[Me-SLM, (E)-1-methyl-4-(2-(9-methyl-9H-carbazol-3-yl)vinyl)quinolinium iodide]", "values": [{"measurement": "inhibition of Aβ peptide aggregation and fibril growth", "setting": "[2]", "result": "inhibit Aβ peptide aggregation and prevent fibril growth"}]}
{"smiles": "COCCOCCn1c2ccccc2c2cc(/C=C/c3c4ccccc4[n+](C)c4ccccc34)ccc21.[I-]", "note": "[SAM, (E)-9-(2-(9-(2-(2-methoxyethoxy)ethyl)-9H-carbazol-3-yl)vinyl)-10-methylacridinium iodide]", "values": [{"measurement": "inhibition of Aβ peptide aggregation and fibril growth", "setting": "[2]", "result": "inhibit Aβ peptide aggregation and prevent fibril growth"}, {"measurement": "emission wavelength", "setting": "[6]", "result": "~760", "unit": "nm"}]}
{"smiles": "COCCOCCn1c2ccccc2c2cc(/C=C/c3c4ccccc4[n+](CCO)c4ccccc34)ccc21.[I-]", "note": "[SAOH, (E)-10-(2-hydroxyethyl)-9-(2-(9-(2-(2-methoxyethoxy)ethyl)-9H-carbazol-3-yl)vinyl)-acridinium iodide]", "values": [{"measurement": "toxicity (in words)", "setting": "SH-SY5Y neuronal cell [1]", "result": "non-toxic"}, {"measurement": "inhibition of Aβ peptide aggregation and fibril growth", "setting": "[2]", "result": "inhibition of Aβ fibril formation; also recorded: inhibit Aβ peptide aggregation and prevent fibril growth; also recorded: potent inhibitor of Aβ aggregation"}, {"measurement": "protection from the neurotoxic effects of Aβ oligomers and fibrils", "setting": "SH-SY5Y neuronal cell [7]", "result": "protected from the neurotoxic effects of the Aβ oligomers and fibrils; also recorded: protective effect against the neurotoxic activities of the Aβ oligomers and fibrils"}, {"measurement": "emission wavelength", "setting": "[6]", "result": "~760", "unit": "nm"}]}
{"smiles": "COCCOCCn1c2ccccc2c2cc(/C=C/c3cc[n+](CC(N)=O)c4ccccc34)ccc21", "note": "[SLAD, (E)-1-(2-Amino-2-oxoethyl)-4-(2-(9-(2-(2-methoxyethoxy)ethyl)-9H-carbazol-3-yl)vinyl)quinolin-1-ium bromide]", "values": [{"measurement": "toxicity (in words)", "setting": "SH-SY5Y neuronal cell [1]", "result": "non-toxic"}, {"measurement": "inhibition of Aβ peptide aggregation and fibril growth", "setting": "[2]", "result": "inhibit Aβpeptide aggregation and prevent fibril growth; also recorded: inhibit Aβ (1-40) peptide aggregation and prevent fibril growth; also recorded: potent Aβ aggregation inhibitors"}, {"measurement": "ability to penetrate the blood-brain barrier", "setting": "[3]", "result": "show blood-brain permeability; also recorded: ability to cross the blood-brain barrier"}, {"measurement": "targeting of / selectivity towards Aβ plaques in brain", "setting": "Aβ plaques", "result": "target the Aβ plaques; also recorded: colocalization of fluorescence signals of SLAD and Aβ antibody"}, {"measurement": "protection from the neurotoxic effects of the Aβ species", "setting": "[4]", "result": "protected from the neurotoxic effects of the Aβ species; also recorded: protective effect against the neurotoxic activities of the Aβ oligomers and fibrils"}, {"measurement": "reduction of ROS induced by the Aβ species", "setting": "[5]", "result": "reduce the ROS induced by the Aβ species"}]}
{"smiles": "CCOC(=O)C[n+]1ccc(/C=C/c2ccc3c(c2)c2ccccc2n3CCOCCOC)c2ccccc21", "note": "[SLAce, (E)-1-(2-Ethoxy-2-oxoethyl)-4-(2-(9-(2-(2-methoxyethoxy)ethyl)-9H-carbazol-3-yl)vinyl)quinolin-1-ium bromide]", "values": [{"measurement": "inhibition of Aβ peptide aggregation and fibril growth", "setting": "[2]", "result": "inhibit Aβpeptide aggregation and prevent fibril growth; also recorded: inhibit Aβ (1-40) peptide aggregation and prevent fibril growth"}, {"measurement": "ability to penetrate the blood-brain barrier", "setting": "[3]", "result": "show blood-brain permeability"}]}
{"smiles": "COCCOCCn1c2ccccc2c2cc(/C=C/c3cc[n+](CC(=O)O)c4ccccc34)ccc21.[Br-]", "note": "[SLCOOH, (E)-1-(carboxymethyl)-4-(2-(9-(2-(2-methoxyethoxy)ethyl)-9H-carbazol-3-yl)vinyl)quinolin-1-ium bromide]", "values": [{"measurement": "toxicity (in words)", "setting": "SH-SY5Y neuronal cell [1]", "result": "non-toxic"}, {"measurement": "ability to penetrate the blood-brain barrier", "setting": "[3]", "result": "BBB penetrable"}, {"measurement": "targeting of / selectivity towards Aβ plaques in brain", "setting": "Aβ plaques", "result": "able to target the Aβ species in-vivo with high affinity"}]}
{"smiles": "CC[n+]1ccc(/C=C/c2ccc3c(c2)c2ccccc2n3CCOCCOC)c2ccccc21", "note": "[SLE, (E)-1-ethyl-4-(2-(9-(2-(2-methoxyethoxy)ethyl)-9H-carbazol-3-yl)vinyl)quinolinium bromide]", "values": [{"measurement": "inhibition of Aβ peptide aggregation and fibril growth", "setting": "[2]", "result": "inhibit Aβ peptide aggregation and prevent fibril growth"}]}
{"smiles": "COCCOCCn1c2ccccc2c2cc(/C=C/c3cc[n+](CCOCCOC)c4ccccc34)ccc21", "note": "[SLG, (E)-1-(2-(2-methoxyethoxy)ethyl)-4-(2-(9-(2-(2-methoxyethoxy)ethyl)-9H-carbazol-3-yl)vinyl)quinolinium iodide]", "values": [{"measurement": "inhibition of Aβ peptide aggregation and fibril growth", "setting": "[2]", "result": "inhibit Aβpeptide aggregation and prevent fibril growth; also recorded: inhibit Aβ (1-40) peptide aggregation and prevent fibril growth"}, {"measurement": "ability to penetrate the blood-brain barrier", "setting": "[3]", "result": "show blood-brain permeability"}]}
{"smiles": "COCCOCCn1c2ccccc2c2cc(/C=C/c3cc[n+](CCO)c4ccccc34)ccc21", "note": "[SLOH, (E)-1-(2-hydroxyethyl)-4-(2-(9-(2-(2-methoxyethoxy)ethyl)-9H-carbazol-3-yl)vinyl)-quinolinium chloride]", "values": [{"measurement": "toxicity (in words)", "setting": "SH-SY5Y neuronal cell [1]", "result": "non-toxic"}, {"measurement": "Aβ fibril growth (average fibril length) on addition of the compound", "setting": "[2]; 50 μM added at different time points within 60 min incubation of Aβ monomer", "result": "strongly arrests its fibril growth"}, {"measurement": "inhibition of Aβ peptide aggregation and fibril growth", "setting": "[2]", "result": "inhibition of Aβ fibril formation; also recorded: inhibit Aβ peptide aggregation and prevent fibril growth; also recorded: potent inhibitor of Aβ aggregation"}, {"measurement": "Fpeptide/FSLOH fluorescence enhancement", "setting": "[8]", "result": 6.3}, {"measurement": "targeting of / selectivity towards Aβ plaques in brain", "setting": "Aβ plaques", "result": "colocalization of fluorescence signals of SLOH and ThT; also recorded: colocalization of fluorescence signals of SLOH and Aβ antibody; also recorded: selectivity of SLOH towards Aβ plaques"}, {"measurement": "protection from the neurotoxic effects of Aβ oligomers and fibrils", "setting": "SH-SY5Y neuronal cell [7]", "result": "protected from the neurotoxic effects of the Aβ oligomers and fibrils; also recorded: protective effect against the neurotoxic activities of the Aβ oligomers and fibrils"}, {"measurement": "Ffibril/FSLOH fluorescence enhancement", "setting": "Aβ(1-40) fibrils", "result": 81.5}]}
{"smiles": "COCCOCCn1c2ccccc2c2cc(/C=C/c3cc[n+](CCCO)c4ccccc34)ccc21", "note": "[SLOH-Pr, (E)-1-(3-hydroxypropyl)-4-(2-(9-(2-(2-methoxyethoxy)ethyl)-9H-carbazol-3-yl)vinyl)-quinolinium bromide]", "values": [{"measurement": "inhibition of Aβ peptide aggregation and fibril growth", "setting": "[2]", "result": "inhibit Aβ peptide aggregation and prevent fibril growth"}]}
